The target of one data set is T1, human MAO B (hMAO B) (Homo sapiens, UniProt P27338).
T1 sequence (P27338 1-520): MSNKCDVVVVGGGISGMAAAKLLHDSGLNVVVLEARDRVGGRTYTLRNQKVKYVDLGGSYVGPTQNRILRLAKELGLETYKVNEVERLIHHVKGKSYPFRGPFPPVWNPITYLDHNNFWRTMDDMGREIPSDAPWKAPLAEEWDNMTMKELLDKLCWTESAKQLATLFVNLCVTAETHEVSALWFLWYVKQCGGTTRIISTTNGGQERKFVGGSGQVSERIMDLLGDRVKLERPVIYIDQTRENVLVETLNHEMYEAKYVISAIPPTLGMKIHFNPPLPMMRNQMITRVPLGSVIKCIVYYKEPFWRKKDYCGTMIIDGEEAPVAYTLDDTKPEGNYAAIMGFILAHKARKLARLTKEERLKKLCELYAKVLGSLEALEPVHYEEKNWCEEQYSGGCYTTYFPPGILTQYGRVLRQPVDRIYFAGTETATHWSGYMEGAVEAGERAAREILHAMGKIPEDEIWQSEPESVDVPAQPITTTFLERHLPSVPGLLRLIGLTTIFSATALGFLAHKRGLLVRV
The data set can be described thus: fluorometric MAO assay (p-tyramine substrate). To be noted: for IC50: fluorometric MAO assay, mean ± SEM of 2–4 independent experiments; for inhibition at 1 µM: mean of two independent experiments, read-out: hMAO B % of Inh. In kind it is biochemical. The procedure: The precise method was described in [6]. First, compounds 4–32 were screened for hMAO B inhibitory activity at 1 μM concentration by the fluorometric method. Para-tyramine (200 μM) was used as a substrate for the enzyme and safinamide (1 μM) was used as a reference compound. […] Each experiment was performed in duplicate.
All compounds were first screened for hMAO B inhibitory activity at the concentration of 1 μM. […] Based on the results, we selected compounds 9 and 13 for further analysis.

The target in data set [1] is human histamine H3 receptor (hH3R) (Homo sapiens, UniProt Q9Y5N1). The data set can be described thus: [3H]Nα-methylhistamine radioligand binding assay in CHO-K1 cells stably expressing hH3R. Set-up: expressed in transfected cells; host or cells: CHO-K1. To be noted: for inhibition at 1 µM / hH3R activity in words: CHO K1 cells; for inhibition at 1 µM: two independent experiments, read-out: hH3R % Inh. (radioligand inhibition); for Ki: CHO-K1 cells, [3H]Nα-methylhistamine, mean ± SEM of three independent experiments. The procedure: Affinity to hH3R stably expressed in CHO-K1 [6] or HEK293 [11] cells was evaluated in a radioligand binding assay as described previously. Briefly, 10 mM stock solutions of the test compounds in DMSO were prepared. Each compound was tested at eight concentrations ranging from 10^−5 to 10^−12 M (final concentration). All assays were carried out in duplicate. […] The radioactivity was counted in MicroBeta 2 [6] or MicroBeta Trilux counter (PerkinElmer). Data were fitted to a one-site curve-fitting equation with Prism 6 (GraphPad Software, San Diego, CA, USA) and Ki values were calculated from IC50 values (from at least three experiments performed in duplicates) according to the Cheng−Prusoff equation [12].
human histamine H3 receptor (hH3R), sequence (Q9Y5N1 whole entry): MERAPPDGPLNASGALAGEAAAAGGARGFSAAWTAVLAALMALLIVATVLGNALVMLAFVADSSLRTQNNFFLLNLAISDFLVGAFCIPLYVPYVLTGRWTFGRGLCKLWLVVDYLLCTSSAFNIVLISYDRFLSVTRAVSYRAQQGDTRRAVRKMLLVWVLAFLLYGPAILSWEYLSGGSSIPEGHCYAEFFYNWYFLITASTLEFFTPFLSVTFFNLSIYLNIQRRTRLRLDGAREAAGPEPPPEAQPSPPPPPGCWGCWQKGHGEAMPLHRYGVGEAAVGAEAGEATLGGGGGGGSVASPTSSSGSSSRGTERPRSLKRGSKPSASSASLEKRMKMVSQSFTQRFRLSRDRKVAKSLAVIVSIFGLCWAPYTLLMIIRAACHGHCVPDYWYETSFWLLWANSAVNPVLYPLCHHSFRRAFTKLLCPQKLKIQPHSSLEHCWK
Affinity for hH3R was evaluated in a radioligand binding assay using [^3H]N^α-methylhistamine as radioligand in CHO K1 or HEK293 cells stably expressing hH3R as described previously. […] Then, those with at least 50% inhibition for hH3R were selected for further testing (Ki evaluation). […] Compounds were tested in the binding assay in HEK293 cells.

In another data set the target is T2, MAO B (Homo sapiens, UniProt P27338).
T2 sequence (P27338 1-520): T1 sequence (P27338 1-520)
Description: reversibility of MAO B inhibition (reactivation by excess p-tyramine, with/without preincubation). It counts as biochemical. The settings on record: inhibitor at IC80. The procedure: The reversibility of the MAO inhibition was tested as described in [6, 7]. […] Two variants of experiment were performed. […] After 22 min, the concentration of the substrate was increased to 200 µM and the signal was measured for 5 h.

“And” between values parts separate entries of the source, which are not always exact repeats. Equal values may be shown once. Where a name gives a salt, the structure may show the parent alone. Read-outs that look alike come from different tables or passages of the source. Where only a bound is given, the exact number is not on record here.

With `CCN(CC)CCCOc1ccc(C(C)(C)C)cc1` [Compound 7, 3-(4-(tert-Butyl)phenoxy)-N,N-diethylpropan-1-amine hydrogen oxalate], on human MAO B (hMAO B), the concentration for half-maximal inhibition (IC50) came to 15 ± 4 nM. Also, the inhibition at 1 µM in data set [1] was 32%.
With `Cc1ccc(OCCCN2CCCCC2)c(C(C)(C)C)c1.O=C(O)C(=O)O` [Compound 28, 1-(3-(2-(tert-Butyl)-4-methylphenoxy)propyl)piperidine hydrogen oxalate], the melting point lay within 182 to 184 °C. In addition, at human MAO B (hMAO B), the inhibition at 1 µM is 7%. Also, in data set [1] (read-out: hH3R Ki [nM] ± SEM), the Ki worked out at 448 ± 59 nM.
On to `CC(C)(C)c1cccc(OCCCN2CCCCC2)c1` [Compound 25, 1-(3-(3-(tert-Butyl)phenoxy)propyl)piperidine hydrogen chloride], for which, on human MAO B (hMAO B), the 50% inhibitory concentration (IC50) was 1020 ± 69 nM. The inhibitory constant (Ki) in data set [1] (read-out: hH3R Ki [nM] ± SEM) came to 340 ± 23 nM.
For `CC(C)(C)CCNC(=O)OCCCN1CCCCC1` [Compound 32, 3-(Piperidin-1-yl)propyl (3,3-dimethylbutyl)carbamate hydrogen oxalate], the IC50 at human MAO B (hMAO B) was found to be 925 ± 29 nM. Moreover, the inhibition at 1 µM in data set [1] was found to be 20%.
As to `CC1CCCC(C)N1CCCOc1ccc(C(C)(C)C)cc1.Cl` (stereo not drawn) (hydrate or solvate) [Compound 11, 1-(3-(4-(tert-Butyl)phenoxy)propyl)-2,6-dimethylpiperidine hydrogen chloride], the melting point is 194 to 196 °C (dec.).
For the compound `CC(C)(C)CC(C)(C)NC(=O)OCCCN1CCCCC1` [Compound 31, 3-(Piperidin-1-yl)propyl (2,4,4-trimethylpentan-2-yl)carbamate hydrogen oxalate], the results for the inhibition at 1 µM (at human MAO B (hMAO B); in data set [1]) were 41% and 19%, respectively.
For the compound `C#CCN[C@@H]1CCc2ccccc21` [rasagiline, reference compound], on MAO B, the “effect of 30 min preincubation on inhibition (preincubated vs non-preincubated)” value was “inhibited the enzyme more strongly than non-preincubated”. For the same compound, the “reversibility of MAO B inhibition” value at MAO B (excess p-tyramine 200 µM) is reported as “Irreversible inhibition”.
In turn, `Cc1cccc(C(C)(C)C)c1OCCCN1CCCCC1.O=C(O)C(=O)O` [Compound 26, 1-(3-(2-(tert-Butyl)-6-methylphenoxy)propyl)piperidine hydrogen oxalate] yielded a melting point of 134 to 135 °C. Moreover, the inhibition at 1 µM on human MAO B (hMAO B) worked out at 0%. Besides, in data set [1] (read-out: hH3R Ki [nM] ± SEM), the Ki was > 1000 nM. For the same compound, the inhibition at 1 µM in data set [1] turned out to be 0%.
Take `Cc1ccc(C(C)(C)C)c(OCCCN2CCCCC2)c1` [Compound 27, 1-(3-(2-(tert-Butyl)-5-methylphenoxy)propyl)piperidine hydrogen oxalate]: the inhibition at 1 µM is 4% at human MAO B (hMAO B) and 0% in data set [1]. The inhibition constant Ki in data set [1] (read-out: hH3R Ki [nM] ± SEM) is > 1000 nM.
At human MAO B (hMAO B), `CCN(C)CCCOc1ccc(C(C)(C)C)cc1` [Compound 5, 3-(4-(tert-Butyl)phenoxy)-N-ethyl-N-methylpropan-1-amine hydrogen oxalate] returned an IC50 of 9 nM. Besides, in data set [1] (read-out: hH3R Ki [nM] ± SEM), the Ki is 484 ± 15 nM.
Compound `CN(C)CCCOc1ccc(C(C)(C)C)cc1` [Compound 4, 3-(4-(tert-Butyl)phenoxy)-N,N-dimethylpropan-1-amine hydrogen oxalate] returned an IC50 at human MAO B (hMAO B) of 19 ± 2 nM. In addition, in data set [1], the inhibition at 1 µM worked out at 24%.
Turning to `CC(C)(C)c1ccc(OCCCN2CCCCC2)cc1` [DL76, 1-(3-(4-tert-butylphenoxy)propyl)piperidine, reference compound], the inhibition constant (Ki) in data set [1] (read-out: hH3R Ki [nM] ± SEM) was 57 nM and 57.5 nM.
Take `CCN(CC)CCCOc1ccc(C(C)(C)C)cc1.O=C(O)C(=O)O` (hydrate or solvate) [Compound 7, 3-(4-(tert-Butyl)phenoxy)-N,N-diethylpropan-1-amine hydrogen oxalate]: the melting point was in the range of 105 to 108 °C.
In the case of `CN1CCN(CCCOc2ccc(C(C)(C)C)cc2)CC1.O=C(O)C(=O)O` [Compound 15, 1-(3-(4-(tert-Butyl)phenoxy)propyl)-4-methylpiperazine hydrogen oxalate], at human MAO B (hMAO B), half-maximal inhibition (IC50) required 665 ± 118 nM. In data set [1], the “hH3R activity in words” value is “no activity at all” and the inhibition at 1 µM amounted to 0%.
Take `CC(C)(C)c1ccccc1OCCCN1CCCCC1` [Compound 24, 1-(3-(2-(tert-Butyl)phenoxy)propyl)piperidine hydrogen oxalate]: the values for the inhibition at 1 µM (at human MAO B (hMAO B); in data set [1]) were 4% and 13%, respectively. The Ki in data set [1] (read-out: hH3R Ki [nM] ± SEM) was > 1000 nM.
`CC(C)(C)c1ccc(OCCCN2CCN(c3ccccc3)CC2)cc1.O=C(O)C(=O)O` [Compound 16, 1-(3-(4-(tert-Butyl)phenoxy)propyl)-4-phenylpiperazine hydrogen oxalate]: the melting point is 164 to 166 °C. The inhibition at 1 µM at human MAO B (hMAO B) was 14%. Also, in data set [1], the “hH3R activity in words” value is recorded as “weak potency”. Moreover, in data set [1] (hH3R Ki [nM] ± SEM), affinity was put at a Ki of 535 ± 41 nM.
Consider `CC(C)(C)NC(=O)OCCCN1CCCCC1` [Compound 30, 3-(Piperidin-1-yl)propyl tert-butylcarbamate hydrogen oxalate], for which the inhibition at 1 µM on human MAO B (hMAO B) was 47%; in data set [1], 15%.
In turn, `CC(C)(C)c1cccc(OCCCN2CCCCC2)c1.Cl` (hydrate or solvate) [Compound 25, 1-(3-(3-(tert-Butyl)phenoxy)propyl)piperidine hydrogen chloride] yielded a melting point of 145 to 148 °C.
`CC(C)N(C)CCCOc1ccc(C(C)(C)C)cc1` [Compound 6, 3-(4-(tert-Butyl)phenoxy)-N-isopropyl-N-methylpropan-1-amine hydrogen oxalate]: the IC50 at human MAO B (hMAO B) amounted to 6 ± 1 nM. Further, the inhibitory constant (Ki) in data set [1] (read-out: hH3R Ki [nM] ± SEM) stood at 900 ± 75 nM.
In the case of `CC(C)(C)c1ccc(OCCCN2CCOCC2)cc1.O=C(O)C(=O)O` [Compound 14, 4-(3-(4-(tert-Butyl)phenoxy)propyl)morpholine hydrogen oxalate], the melting point fell in the range of 188 to 192 °C. In addition, the IC50 against human MAO B (hMAO B) was 192 ± 14 nM. Further, in data set [1], the “hH3R activity in words” value is “weak potency” and the inhibition at 1 µM worked out at 11%.
As to `CC1CCCC(C)N1CCCOc1ccc(C(C)(C)C)cc1` (stereo not drawn) [Compound 11, 1-(3-(4-(tert-Butyl)phenoxy)propyl)-2,6-dimethylpiperidine hydrogen chloride], the half-inhibitory concentration (IC50) on human MAO B (hMAO B) worked out at 9 ± 1 nM. Besides, the inhibitory constant (Ki) in data set [1] (read-out: hH3R Ki [nM] ± SEM) is < 100 nM and 97 nM.
As for `CC(C)(C)c1ccc(NC(=O)OCCCN2CCCCC2)cc1` [Compound 29, 3-(Piperidin-1-yl)propyl (4-(tert-butyl)phenyl)carbamate hydrogen oxalate], half-maximal inhibition against human MAO B (hMAO B) (IC50) required 2320 ± 436 nM. The inhibition constant (Ki) in data set [1] (read-out: hH3R Ki [nM] ± SEM) was > 1000 nM. The inhibition at 1 µM in data set [1] was 32%.
`CC(C)(C)c1ccc(OCCCN2CCN(C/C=C\c3ccccc3)CC2)cc1.O=C(O)C(=O)O` [Compound 17, (Z)-1-(3-(4-(tert-Butyl)phenoxy)propyl)-4-(3-phenylallyl)piperazine hydrogen oxalate] registered a melting point of 217 to 219 °C. Moreover, the inhibition at 1 µM at human MAO B (hMAO B) was determined as 7%. Besides, in data set [1], the “hH3R activity in words” value is on record as “no activity at all” and the inhibition at 1 µM was determined as 0%.
On human MAO B (hMAO B), `CC(C)N(CCCOc1ccc(C(C)(C)C)cc1)C(C)C` [Compound 8, 3-(4-(tert-Butyl)phenoxy)-N,N-diisopropylpropan-1-amine hydrogen chloride] registered a half-inhibitory concentration (IC50) of 37 ± 6 nM. In data set [1], the inhibition at 1 µM stood at 8%.

The values above are taken from paper PMC9607599, “Dual Targeting Ligands—Histamine H3 Receptor Ligands with Monoamine Oxidase B Inhibitory Activity—In Vitro and In Vivo Evaluation” (Pharmaceutics, 2022).
